Measured values published in ChEMBL document CHEMBL4480418, “Antibacterial activity of indolyl-quinolinium derivatives and study their mode of action” (Bioorg Med Chem, 2019).
In brackets after ≈: the same amount, converted by molar mass.

How the values were obtained:
Type in all cases: functional
[1] = test system: Staphylococcus aureus; test: Antimicrobial activity against Staphylococcus aureus ATCC 25923 measured after 18 hrs by broth microdilution method; conditions: ATCC 25923, 18 h
[2] = test system: Enterococcus faecium; test: Antimicrobial activity against vancomycin-resistant Enterococcus faecium ATCC 700221 measured after 18 hrs by broth microdilution method; conditions: ATCC 700221, 18 h
[3] = test system: Escherichia coli; test: Antimicrobial activity against Escherichia coli ATCC 25922 measured after 18 hrs by broth microdilution method; conditions: ATCC 25922, 18 h
[4] = test system: Staphylococcus aureus; test: Antimicrobial activity against methicillin-resistant Staphylococcus aureus ATCC 43300 measured after 18 hrs by broth microdilution method; conditions: ATCC 43300, 18 h
[5] = test system: Staphylococcus aureus; test: Antimicrobial activity against methicillin-resistant Staphylococcus aureus ATCC BAA-41 measured after 18 hrs by broth microdilution method; conditions: ATCC BAA-41, 18 h
[6] = test system: Escherichia coli; test: Antimicrobial activity against NDM1 beta -lactamse expressing Escherichia coli ATCC BAA-2469 measured after 18 hrs by broth microdilution method; conditions: ATCC BAA-2469, 18 h
[7] = test system: Staphylococcus aureus; test: Antimicrobial activity against penicillin-resistant Staphylococcus aureus ATCC 29213 measured after 18 hrs by broth microdilution method; conditions: ATCC 29213, 18 h
[8] = test system: Enterococcus faecium; test: Antimicrobial activity against drug-susceptible Enterococcus faecium ATCC 49624 measured after 18 hrs by broth microdilution method; conditions: ATCC 49624, 18 h
[9] = test system: Klebsiella pneumoniae; test: Antimicrobial activity against NDM1 beta-lactamase expressing Klebsiella pneumoniae ATCC BAA-2470 measured after 18 hrs by broth microdilution method; conditions: ATCC BAA-2470, 18 h
[10] = test system: Pseudomonas aeruginosa; test: Antimicrobial activity against multidrug-resistant Pseudomonas aeruginosa ATCC BAA-2108 measured after 18 hrs by broth microdilution method; conditions: ATCC BAA-2108, 18 h
[11] = test system: Enterococcus faecalis; test: Antimicrobial activity against Enterococcus faecalis ATCC 29212 measured after 18 hrs by broth microdilution method; conditions: ATCC 29212, 18 h
[12] = test system: Enterobacter cloacae; test: Antimicrobial activity against Ampc beta-lactamase expressing Enterobacter cloacae ATCC BAA-1143 measured after 18 hrs by broth microdilution method; conditions: ATCC BAA-1143, 18 h
[13] = test system: Acinetobacter baumannii; test: Antimicrobial activity against multidrug-resistant Acinetobacter baumannii ATCC 19606 measured after 18 hrs by broth microdilution method; conditions: ATCC 19606 = CIP 70.34 = JCM 6841, 18 h
[14] = test system: Bacillus subtilis; test: Antibacterial activity against Bacillus subtilis 168 measured after 18 hrs by broth microdilution method; conditions: subsp. subtilis str. 168, 18 h
[15] = test system: Staphylococcus aureus; test: Antimicrobial activity against penicillin-resistant Staphylococcus aureus ATCC 29213 assessed as ratio of MIC after and before 15 serial passages preincubated followed by replating and measured after 24 hrs

SMILES | MIC [1] [µg/mL] | MIC [2] [µg/mL] | MIC [3] [µg/mL] | MIC [4] [µg/mL] | MIC [5] [µg/mL] | MIC [6] [µg/mL] | MIC [7] [µg/mL] | MIC [8] [µg/mL] | MIC [9] [µg/mL] | MIC [10] [µg/mL] | MIC [11] [µg/mL] | MIC [12] [µg/mL] | MIC [13] [µg/mL] | MIC [14] [µg/mL] | Ratio [15]
CC1(C)S[C@@H]2[C@H](NC(=O)Cc3ccccc3)C(=O)N2[C@H]1C(=O)O [PENICILLIN G] | < 0.125 | > 64 | 1 (≈ 2.99 µM) | > 64 | > 64 | > 64 | > 64 | 0.25 (≈ 0.748 µM) | > 64 | > 64 | 0.5 (≈ 1.5 µM) | > 64 | 64 (≈ 191 µM) | 32 (≈ 95.7 µM) | 
C[n+]1c(/C=C/c2c[nH]c3ccccc23)cc(NCCN2CCCC2)c2ccccc21.[I-] | 16 | 64 | 64 | 64 | 64 | 64 | 16 | 32 | > 64 | > 64 | 64 | > 64 | > 64 | 32 | 
C[n+]1c(/C=C/c2cc3ccccc3[nH]2)cc(N2CCCC2)c2ccccc21.[I-] | 4 | 16 | 32 | 8 | 8 | 32 | 2 | 8 | > 64 | > 64 | 16 | > 64 | 64 | 8 | 
CCn1cc(C(=O)O)c(=O)c2cc(F)c(N3CCNCC3)cc21 [NORFLOXACIN] |  |  |  |  |  |  |  |  |  |  |  |  |  |  | 500
C[n+]1c(/C=C/c2cc3ccccc3[nH]2)ccc2ccccc21.[I-] | 32 | 64 | 64 | 64 | 32 | 64 | 32 | 32 | > 64 | > 64 | 32 | > 64 | > 64 | 32 | 
CCN(CC)CCNc1cc(/C=C/c2c[nH]c3ccccc23)[n+](C)c2ccccc12.[I-] | 16 | 64 | 64 | 32 | 32 | 64 | 16 | 32 | > 64 | > 64 | 64 | > 64 | > 64 | 16 | 
C[n+]1c(/C=C/c2c[nH]c3ccccc23)cc(N2CCOCC2)c2ccccc21.[I-] | 16 | 32 | 64 | 32 | 32 | > 64 | 16 | 16 | > 64 | > 64 | 16 | > 64 | > 64 | 16 | 
CC1CCN(c2cc(/C=C/c3cc4ccccc4[nH]3)[n+](C)c3ccccc23)CC1.[I-] | 4 | 8 | 32 | 8 | 8 | 32 | 4 | 4 | > 64 | > 64 | 8 | > 64 | > 64 | 8 | 
C[n+]1c(/C=C/c2c[nH]c3ccccc23)cc(NCCN2CCOCC2)c2ccccc21.[I-] | 64 | 64 | > 64 | 64 | 64 | > 64 | 32 | 32 | > 64 | > 64 | 64 | > 64 | > 64 | 64 | 
